The values that follow come from US20040110771A1, “7-(r)-aminotriazolopyrimidines, the production thereof and use of the same for combatting phytopathogenic fungi” (priority 2000, published 2004).

What all share (type): in vivo
Assay [1] deals with Puccinia recondita. In words: Curative activity against brown rust of wheat caused by Puccinia recondita. The settings on record: curative spray 24 h after inoculation, wheat seedlings "Kanzler", 7 days. In a few lines:
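Wheat seedlings (cv. Kanzler) inoculated with brown rust spores and held 24 h at 90–95% humidity and 20–22°C, then sprayed to runoff with the emulsified compound the next day. Rust development on leaves scored after 7 days in greenhouse at 20–22°C and 65–70% relative humidity.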

In assay [2] the test system is Pyrenophora teres. In words: Activity against net blotch of barley caused by Pyrenophora teres. The settings on record: barley seedlings "Igri", inoculated 24 h after spraying, 6 days. A digest of the protocol:
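Potted barley seedlings (cv. Igri) were sprayed to runoff with aqueous compound preparation, then inoculated with P. teres spores 24 h after the spray dried. Plants were kept in a greenhouse at 20-24° C and 95-100% relative humidity, and disease was scored visually after 6 days as % infected leaf area.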

In assay [3] the test system is Septoria tritici. In words: Protective activity against Septoria foliar blotch disease of wheat caused by Septoria tritici. The settings on record: wheat seedlings "Riband", inoculated 24 h after spraying, 2 weeks. As for the experimental part:
The active compounds were prepared separately or jointly as a 10% strength emulsion in a mixture of 70% by weight of cyclohexanone, 20% by weight of Nekanil® LN (Lutensol® AP6, wetting agent having emulsifying and dispersing action based on ethoxylated alkylphenols) and 10% by weight of Wettol® EM (nonionic emulsifier based on ethoxylated castor oil) and diluted with water to the desired concentration.
Leaves of potted wheat seedlings of the cultivar “Riband” were sprayed to runoff point with an aqueous preparation of active compound which had been prepared from a stock solution made of 10% of active compound, 85% of cyclohexanone and 5% of emulsifier. 24 hours after the spray coating had dried on, they were inoculated with an aqueous spore suspension of Septoria tritici. The suspension contained 2.0×10^6 spores/ml. The test plants were then placed in a greenhouse at 18-22° C. and a relative atmospheric humidity of close to 100%. After 2 weeks, the extent of the development of the disease was determined visually in % infection of the entire leaf area.

Assay [4] concerns Blumeria graminis forma specialis tritici. In words: Activity against mildew of wheat caused by Blumeria graminis forma specialis tritici. The settings on record: wheat seedlings "Kanzler", dusted with spores 24 h after spraying, 7 days. A digest of the protocol: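 Compound, emulsified then diluted in water, sprayed to runoff onto leaves of potted wheat seedlings cv. Kanzler; inoculated with Blumeria graminis f. sp. tritici spores 24 h after the coating dried. Plants kept in greenhouse at 20-24° C., 60-90% relative humidity; mildew scored visually after 7 days as % infected leaf area.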

In the case of `CC(Nc1c(-c2ccccc2Cl)c(Cl)nc2ncnn12)C(C)(C)C` (single isomer, unassigned) [I.-44a], the “% infection of the leaves after application of an aqueous preparation comprising . . . ppm of active compound” value (“% infection of the leaves” below) came out at 60% in assay [1] (250 ppm); 60% in assay [2] (16 ppm); 7% in assay [2] (63 ppm); 60% in assay [3] (16 ppm); 7% in assay [3] (63 ppm); 7% in assay [3] (250 ppm). Besides, the “% infection of the leaves” value in assay [4] (16 ppm) worked out at 50%; in assay [4] (63 ppm), 30%; in assay [4] (250 ppm) it was 30%.

For `CC(C)C(C)Nc1c(-c2c(F)cccc2F)c(Cl)nc2ncnn12` (stereo not drawn) [I.-5], the “% infection of the leaves” value in assay [1] (63 ppm) turned out to be 10%; in assay [1] (250 ppm), 10%; in assay [2] (16 ppm), 20%; in assay [3] (16 ppm) it was 15%; in assay [3] (63 ppm) it was 15%; in assay [3] (250 ppm), 15%. Further, the “% infection of the leaves” value worked out at 40% in assay [4] (16 ppm), 40% in assay [4] (63 ppm) and 20% in assay [4] (250 ppm).

`CCC(C)Nc1c(-c2c(Cl)cccc2Cl)c(Cl)nc2ncnn12` (stereo not drawn) [I.-7]: the “% infection of the leaves” value in assay [1] (16 ppm) is 40%; in assay [2] (16 ppm), 80%; in assay [2] (63 ppm) it was 30%; in assay [2] (250 ppm), 15%; in assay [3] (16 ppm), 70%; in assay [3] (63 ppm), 30%. Besides, the “% infection of the leaves” value in assay [3] (250 ppm) came out at 15%; in assay [4] (250 ppm) it was 60%.

`CC(C)C(C)Nc1c(-c2c(F)cc(F)cc2F)c(Cl)nc2ncnn12` (stereo not drawn) [I.-14]: the “% infection of the leaves” value is given as 0% in assay [1] (16 ppm); 0% in assay [1] (63 ppm); 3% in assay [2] (16 ppm); 15% in assay [3] (16 ppm); 15% in assay [3] (63 ppm); 15% in assay [3] (250 ppm). In addition, the “% infection of the leaves” value in assay [4] (16 ppm) was 30%; in assay [4] (63 ppm) it was 30%; in assay [4] (250 ppm), 20%.

Take `CC[C@@H](C)Nc1c(-c2c(F)cc(OC)cc2F)c(Cl)nc2ncnn12` [I.-16]: the “% infection of the leaves” value in assay [1] (16 ppm) worked out at 7%; in assay [1] (63 ppm) it was 0%; in assay [3] (63 ppm) it was 70%; in assay [3] (250 ppm), 70%; in assay [4] (16 ppm), 40%; in assay [4] (63 ppm) it was 40%. Moreover, the “% infection of the leaves” value in assay [4] (250 ppm) amounted to 20%.

`CC(C)C(C)Nc1c(-c2c(F)cccc2Cl)c(Cl)nc2ncnn12` [comparison (S)-amine of I.-2]: the “% infection of the leaves” value in assay [1] (16 ppm) worked out at 100%; in assay [1] (63 ppm) it was 100%; in assay [1] (250 ppm), 100%; in assay [3] (16 ppm), 90%; in assay [3] (63 ppm) it was 90%; in assay [3] (250 ppm) it was 90%. Besides, the “% infection of the leaves” value in assay [4] (63 ppm) and in assay [4] (250 ppm) was 100% in each case.

Take `CC[C@H](C)Nc1c(-c2c(F)cccc2F)c(Cl)nc2ncnn12` [comparison (S)-amine of I.-4]: the “% infection of the leaves” value in assay [1] (16 ppm) is given as 100%; in assay [1] (63 ppm), 100%; in assay [1] (250 ppm) it was 100%; in assay [3] (16 ppm), 100%; in assay [3] (63 ppm) it was 100%; in assay [3] (250 ppm), 90%. Also, the “% infection of the leaves” value in assay [4] (16 ppm), in assay [4] (63 ppm) and in assay [4] (250 ppm) was 100% throughout.

For the molecule `CC(C)[C@H](C)Nc1c(-c2c(F)cccc2F)c(Cl)nc2ncnn12` [comparison (S)-amine of I.-5], the “% infection of the leaves” value in assay [1] (63 ppm) is recorded as 100%; in assay [1] (250 ppm) it was 100%; in assay [2] (16 ppm) it was 80%; in assay [3] (16 ppm) it was 100%; in assay [3] (63 ppm), 100%; in assay [3] (250 ppm) it was 100%. Besides, the “% infection of the leaves” value in assay [4] (16 ppm), in assay [4] (63 ppm) and in assay [4] (250 ppm) was 100% in each case.

As for `CC[C@H](C)Nc1c(-c2c(F)cc(OC)cc2F)c(Cl)nc2ncnn12` [comparison (S)-amine of I.-16], the “% infection of the leaves” value is listed as 100% in assay [1] (16 ppm); 5% in assay [1] (63 ppm); 90% in assay [3] (63 ppm); 90% in assay [3] (250 ppm); 100% in assay [4] (16 ppm); 100% in assay [4] (63 ppm). In addition, in assay [4] (250 ppm), the “% infection of the leaves” value is on record as 100%.
